{"source": "patent US8703804B2", "about": "“Ryanodine receptor inhibitors and methods relating thereto” (UTI Limited Partnership, priority 2006, dated 2014)", "key": {"[1]": {"tested_on": "RyR2", "assay": "Initial investigations studying RyR2: suppression of SOICR by analogues", "format": "cell-based"}, "[2]": {"target": "RyR2 channel (Homo sapiens, UniProt Q92736)", "conditions": "Honen et al., 2003; cited from earlier work"}, "[3]": {"tested_on": "β-adrenergic receptor", "assay": "β-blocking: isoproterenol-induced phosphorylation of RyR2 at serine-2030 in rat cardiac myocytes (Western blot)", "format": "cell-based", "conditions": "200 nM isoproterenol; for concentration that completely blocks the β-adrenergic receptor: S2030 phosphorylation", "description": "The β-adrenergic receptors were then stimulated by the addition of 200 nM isoproterenol (Iso) in the continued presence of drugs for 30 min at 37° C. Whole cell lysates were prepared and used for Western blotting (WB) analyses.\nIt is known that stimulation of the β-adrenergic receptor (AR) by isoproterenol leads to the activation of the cAMP/protein kinase A (PKA) signaling pathway, which, in turn, results in the phosphorylation by PKA of various protein targets, including the RyR2 channel. RyR2 is specifically phosphorylated at the residue serine-2030 (S2030) upon β-AR stimulation by isoproterenol (Xiao et al., 2005). […] To do this, freshly isolated rat cardiac myocytes are pre-treated with various concentrations of the selected compounds for 5 min, followed by stimulation of the β-AR with 100-200 nM isoproterenol in the continued presence of the selected compounds for 30 min. Whole cell lysates are then prepared and used for determining the level of phosphorylation of RyR2 at S2030 by Western blotting using a site- and phospho-specific antibody against the phosphorylated S2030 site."}, "[4]": {"target": "T1, RyR2-N4104K mutant (Mus musculus, UniProt E9Q401, N4103K)", "T1 construct": "expressed in transfected cells; host or cells: HEK293", "T1 sequence (E9Q401 whole entry N4103K)": "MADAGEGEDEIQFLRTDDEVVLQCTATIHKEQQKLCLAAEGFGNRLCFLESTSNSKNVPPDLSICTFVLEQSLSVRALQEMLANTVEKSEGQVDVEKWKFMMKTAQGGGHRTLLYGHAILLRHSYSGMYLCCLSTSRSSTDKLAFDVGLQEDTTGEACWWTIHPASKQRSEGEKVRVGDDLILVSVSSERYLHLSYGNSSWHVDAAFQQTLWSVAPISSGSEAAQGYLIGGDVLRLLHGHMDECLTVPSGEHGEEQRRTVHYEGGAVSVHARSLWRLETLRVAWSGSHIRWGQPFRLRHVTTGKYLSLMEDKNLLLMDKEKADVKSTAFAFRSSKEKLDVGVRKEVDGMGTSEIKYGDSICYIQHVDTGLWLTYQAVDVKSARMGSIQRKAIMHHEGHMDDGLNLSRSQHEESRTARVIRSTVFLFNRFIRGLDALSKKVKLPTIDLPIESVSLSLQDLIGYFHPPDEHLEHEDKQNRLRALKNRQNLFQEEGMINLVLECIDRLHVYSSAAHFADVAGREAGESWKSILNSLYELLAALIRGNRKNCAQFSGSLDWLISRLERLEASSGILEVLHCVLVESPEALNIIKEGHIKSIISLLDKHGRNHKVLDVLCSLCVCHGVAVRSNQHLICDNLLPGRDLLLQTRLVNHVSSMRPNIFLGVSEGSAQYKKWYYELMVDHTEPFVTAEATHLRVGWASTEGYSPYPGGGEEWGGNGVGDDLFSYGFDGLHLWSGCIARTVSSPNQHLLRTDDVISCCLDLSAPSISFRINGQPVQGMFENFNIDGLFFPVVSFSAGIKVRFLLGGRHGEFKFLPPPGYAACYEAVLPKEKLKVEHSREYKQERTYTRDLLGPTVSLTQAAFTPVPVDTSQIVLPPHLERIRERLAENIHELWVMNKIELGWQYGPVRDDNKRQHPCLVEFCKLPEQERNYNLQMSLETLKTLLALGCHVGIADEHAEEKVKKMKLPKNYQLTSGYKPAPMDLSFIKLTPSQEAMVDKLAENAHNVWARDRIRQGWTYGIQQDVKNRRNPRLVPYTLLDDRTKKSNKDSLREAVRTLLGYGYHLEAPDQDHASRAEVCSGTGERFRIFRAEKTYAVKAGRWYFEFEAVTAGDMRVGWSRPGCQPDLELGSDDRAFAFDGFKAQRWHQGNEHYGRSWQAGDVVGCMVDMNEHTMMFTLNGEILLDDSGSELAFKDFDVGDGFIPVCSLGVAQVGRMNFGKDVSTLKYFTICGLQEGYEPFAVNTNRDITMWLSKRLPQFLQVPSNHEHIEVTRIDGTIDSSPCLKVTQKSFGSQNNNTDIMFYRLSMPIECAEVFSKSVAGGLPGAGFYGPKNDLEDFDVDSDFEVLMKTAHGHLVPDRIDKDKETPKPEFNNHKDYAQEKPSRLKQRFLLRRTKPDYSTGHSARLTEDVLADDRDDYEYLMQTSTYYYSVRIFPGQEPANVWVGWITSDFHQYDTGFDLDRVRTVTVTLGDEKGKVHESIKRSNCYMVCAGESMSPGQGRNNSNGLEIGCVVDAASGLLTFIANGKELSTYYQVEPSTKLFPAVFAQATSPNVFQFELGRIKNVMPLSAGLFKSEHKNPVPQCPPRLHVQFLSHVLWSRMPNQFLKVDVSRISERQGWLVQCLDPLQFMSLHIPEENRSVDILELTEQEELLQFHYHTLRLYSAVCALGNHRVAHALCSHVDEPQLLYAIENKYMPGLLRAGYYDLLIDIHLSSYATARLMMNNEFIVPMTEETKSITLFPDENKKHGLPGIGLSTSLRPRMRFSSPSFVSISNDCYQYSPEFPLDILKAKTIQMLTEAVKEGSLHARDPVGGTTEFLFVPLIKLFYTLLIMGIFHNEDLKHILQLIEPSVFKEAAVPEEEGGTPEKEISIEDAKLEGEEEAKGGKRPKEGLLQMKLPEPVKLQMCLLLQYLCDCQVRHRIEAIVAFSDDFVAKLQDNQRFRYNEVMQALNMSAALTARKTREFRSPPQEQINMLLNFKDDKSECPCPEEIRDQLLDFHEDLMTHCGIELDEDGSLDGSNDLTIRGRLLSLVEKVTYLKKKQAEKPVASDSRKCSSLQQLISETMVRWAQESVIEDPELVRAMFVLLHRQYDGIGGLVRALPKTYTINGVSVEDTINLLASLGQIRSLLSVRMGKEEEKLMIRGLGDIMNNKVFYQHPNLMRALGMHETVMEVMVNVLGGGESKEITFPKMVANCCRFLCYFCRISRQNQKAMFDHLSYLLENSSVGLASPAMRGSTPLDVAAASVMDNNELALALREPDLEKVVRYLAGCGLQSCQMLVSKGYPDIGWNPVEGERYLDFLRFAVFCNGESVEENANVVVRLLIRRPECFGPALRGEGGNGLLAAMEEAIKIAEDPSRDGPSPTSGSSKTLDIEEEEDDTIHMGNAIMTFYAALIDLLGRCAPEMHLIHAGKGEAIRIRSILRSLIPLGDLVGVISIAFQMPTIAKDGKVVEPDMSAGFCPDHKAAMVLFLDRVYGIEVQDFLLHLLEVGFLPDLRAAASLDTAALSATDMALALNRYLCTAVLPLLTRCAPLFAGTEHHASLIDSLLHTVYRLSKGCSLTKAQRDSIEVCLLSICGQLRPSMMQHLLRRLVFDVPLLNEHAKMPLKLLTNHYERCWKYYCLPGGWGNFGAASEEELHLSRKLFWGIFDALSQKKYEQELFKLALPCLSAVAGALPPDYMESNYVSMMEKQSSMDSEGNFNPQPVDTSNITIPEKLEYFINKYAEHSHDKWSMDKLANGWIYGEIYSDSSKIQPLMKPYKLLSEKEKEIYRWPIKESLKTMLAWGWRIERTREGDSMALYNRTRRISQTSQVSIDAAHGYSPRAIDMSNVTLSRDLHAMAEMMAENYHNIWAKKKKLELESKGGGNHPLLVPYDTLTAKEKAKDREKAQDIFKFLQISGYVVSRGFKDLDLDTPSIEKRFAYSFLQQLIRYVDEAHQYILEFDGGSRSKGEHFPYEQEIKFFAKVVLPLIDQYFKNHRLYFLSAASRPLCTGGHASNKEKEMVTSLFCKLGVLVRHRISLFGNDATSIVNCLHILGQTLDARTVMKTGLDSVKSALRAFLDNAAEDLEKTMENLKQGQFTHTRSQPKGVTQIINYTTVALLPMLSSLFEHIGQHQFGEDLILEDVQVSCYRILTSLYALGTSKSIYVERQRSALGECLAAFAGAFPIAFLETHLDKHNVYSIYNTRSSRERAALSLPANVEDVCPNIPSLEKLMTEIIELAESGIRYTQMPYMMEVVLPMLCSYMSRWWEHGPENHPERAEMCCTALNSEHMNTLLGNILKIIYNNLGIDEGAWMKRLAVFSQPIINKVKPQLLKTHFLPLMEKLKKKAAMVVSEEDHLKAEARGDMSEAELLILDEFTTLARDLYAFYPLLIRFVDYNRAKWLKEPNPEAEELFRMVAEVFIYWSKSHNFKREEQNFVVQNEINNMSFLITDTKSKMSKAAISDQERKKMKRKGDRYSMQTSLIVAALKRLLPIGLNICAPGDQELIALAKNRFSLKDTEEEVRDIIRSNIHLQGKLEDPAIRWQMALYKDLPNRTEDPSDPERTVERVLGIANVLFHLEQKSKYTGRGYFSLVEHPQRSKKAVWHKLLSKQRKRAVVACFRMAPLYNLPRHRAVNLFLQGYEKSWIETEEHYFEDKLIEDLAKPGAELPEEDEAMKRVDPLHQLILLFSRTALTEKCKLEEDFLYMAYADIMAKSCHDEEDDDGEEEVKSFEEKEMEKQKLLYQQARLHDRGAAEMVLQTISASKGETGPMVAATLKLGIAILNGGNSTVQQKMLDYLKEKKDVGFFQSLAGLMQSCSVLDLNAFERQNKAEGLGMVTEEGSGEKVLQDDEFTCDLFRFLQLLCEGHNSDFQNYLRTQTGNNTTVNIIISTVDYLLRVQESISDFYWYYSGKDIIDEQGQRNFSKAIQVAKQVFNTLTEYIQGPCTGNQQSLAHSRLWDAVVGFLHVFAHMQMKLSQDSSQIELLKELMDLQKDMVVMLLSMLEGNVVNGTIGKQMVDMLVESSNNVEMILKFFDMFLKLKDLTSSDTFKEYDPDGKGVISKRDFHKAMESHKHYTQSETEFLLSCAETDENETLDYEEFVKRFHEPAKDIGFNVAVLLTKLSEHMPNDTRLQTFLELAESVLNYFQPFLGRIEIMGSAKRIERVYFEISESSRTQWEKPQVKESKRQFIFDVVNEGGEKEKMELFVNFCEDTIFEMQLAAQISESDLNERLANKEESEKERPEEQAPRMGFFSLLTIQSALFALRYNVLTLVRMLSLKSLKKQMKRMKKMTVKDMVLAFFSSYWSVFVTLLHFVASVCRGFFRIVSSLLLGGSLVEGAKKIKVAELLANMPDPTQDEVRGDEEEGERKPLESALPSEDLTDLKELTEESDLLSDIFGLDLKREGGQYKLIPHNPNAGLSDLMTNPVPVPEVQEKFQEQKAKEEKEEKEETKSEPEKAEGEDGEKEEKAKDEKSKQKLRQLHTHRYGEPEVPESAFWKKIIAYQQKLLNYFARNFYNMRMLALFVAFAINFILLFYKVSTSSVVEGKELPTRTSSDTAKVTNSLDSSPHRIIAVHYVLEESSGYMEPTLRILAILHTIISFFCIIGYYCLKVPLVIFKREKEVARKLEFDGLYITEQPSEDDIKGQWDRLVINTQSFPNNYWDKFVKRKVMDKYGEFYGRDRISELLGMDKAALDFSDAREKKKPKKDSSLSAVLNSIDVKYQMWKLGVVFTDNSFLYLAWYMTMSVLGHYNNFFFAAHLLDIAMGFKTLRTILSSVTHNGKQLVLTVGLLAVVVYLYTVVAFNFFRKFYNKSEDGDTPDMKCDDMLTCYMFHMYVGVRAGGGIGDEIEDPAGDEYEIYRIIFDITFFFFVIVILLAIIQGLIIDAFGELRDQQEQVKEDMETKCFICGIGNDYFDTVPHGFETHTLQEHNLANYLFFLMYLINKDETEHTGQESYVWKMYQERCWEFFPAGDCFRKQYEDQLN", "assay": "SOICR in HEK293 cells expressing the N4104K RyR2 mutant", "format": "cell-based", "description": "(§1) Intracellular Ca^2+ transients were monitored using single cell Ca^2+ imaging.\n(§2) HEK293 cells may be loaded with a fluorescent Ca^2+ dye, fura-2-AM. SOICR, which manifests in the form of Ca^2+ oscillations, is continuously monitored by measuring the fluorescent changes using the single cell Ca^2+ imaging technique. Cells will be perfused with increasing concentrations (10 nM to 100 μM) of the compound. The frequency and amplitude of Ca^2+ oscillations under each condition will be determined and analyzed. Compounds that inhibit SOICR are expected to reduce the frequency of Ca^2+ oscillations, or abolish Ca^2+ oscillations.\nFurther verification of whether these identified compounds also work in cardiac cells, the effect of these compounds on SOICR in rat ventricular myocytes may also be determined. Rat ventricular myocytes may be isolated according to the standard procedure using enzymatic digestion. […] The intracellular Ca^2+ transients as a result of SOICR will be monitored by measuring the fluorescent intensity using a fluorescent microscope. Various concentrations of the selected compounds (10 nM to 100 μM) will be applied and the resulting changes in intracellular Ca^2+ transients will be determined and analyzed."}, "[5]": {"tested_on": "RyR2-R4496C KI mice", "assay": "Stress-induced ventricular tachycardia in RyR2-R4496C knock-in mice (CPVT model)", "format": "in vivo, mouse", "conditions": "16 mg/kg/day i.p. for 5 days, preliminary", "description": "The electrocardiograms (ECG) of the R4496C KI mice were continuously monitored by using telemetric ECG recordings before and after the injection of epinephrine and caffeine. The incidence of ventricular tachycardia (VT) was assessed by determining the duration of VT occurring during a 2-min period (% of time).\nIn order to assess the efficacy of compounds of the present invention in suppressing cardiac arrhythmia at the animal level, genetically engineered knock-in mice were generated harboring RyR2 mutations that are associated with cardiac arrhythmia and sudden death. A heterozygous knock-in mouse line harboring the disease-causing RyR2 mutation, R4496C, has been prepared. Similar to patients who carry the mutation, the R4496C mutant mice are likely prone to stress-induced cardiac arrhythmia and sudden death. If this is the case, this R4496C mouse model may be used to test if compounds of the present invention are able to reduce the incidence of stress-induced cardiac arrhythmia and sudden death. Briefly, mutant mice will be pretreated with or without a positive compound identified above. Epinephrine and caffeine will be injected into the mutant mice to induce cardiac arrhythmia. Telemetric ECG recordings will be used to monitor the cardiac activity at rest and during epinephrine and caffeine perfusion. […]"}, "[6]": {"target": "T2, mutant RyR2 channels (Mus musculus, UniProt E9Q401, R4495C)", "T2 construct": "expressed in transfected cells; host or cells: HEK293 (cell lysate, detergent-solubilised)", "T2 sequence (E9Q401 whole entry R4495C)": "as the sequence (E9Q401 whole entry N4103K) above, with K4103N, R4495C counted along it", "assay": "[3H]ryanodine binding, basal channel activity of RyR2", "format": "biochemical", "description": "as §1\n[^3H]Ryanodine binding has been widely used as a functional assay for assessing the activity of the RyR2 channel. […] These [^3H]ryanodine binding studies reveal whether suppression of SOICR by a compound is mediated by inhibition of the RyR2 channel activity."}, "[7]": {"tested_on": "SOICR in rat ventricular myocytes", "assay": "SOICR in rat ventricular myocytes (single cell Ca2+ imaging, fluo-4)", "format": "cell-based", "conditions": "for IC50: Rattus norvegicus, Ventricular myocyte", "description": "Rat ventricular myocytes were loaded with a fluorescent Ca^2+ indicator, fluo 4-AM, and incubated at a high concentration of external Ca^2+ (10 mM) to induced SR Ca^2+ overload and SOICR, which manifests as Ca^2+ oscillations.\nIn the experiments shown in FIG. 3, rat ventricular myocytes were loaded with a fluorescent Ca^2+ indicator, fluo-4, and incubated at a high concentration of extracellular Ca^2+ (10 mM) to induce SR Ca^2+ overload and SOICR, which manifests as Ca^2+ waves/oscillations. These Ca^2+ oscillations were monitored by a single cell Ca^2+ imaging technique.\nFurther verification of whether these identified compounds also work in cardiac cells, the effect of these compounds on SOICR in rat ventricular myocytes may also be determined. Rat ventricular myocytes may be isolated according to the standard procedure using enzymatic digestion. Freshly isolated cells are loaded with a fluorescent Ca^2+ dye, fluo 4-AM, and bathed at high concentrations of extracellular Ca^2+ (5-10 mM) to induce SR Ca^2+ overload and SOICR. The intracellular Ca^2+ transients as a result of SOICR will be monitored by measuring the fluorescent intensity using a fluorescent microscope. Various concentrations of the selected compounds (10 nM to 100 μM) will be applied and the resulting changes in intracellular Ca^2+ transients will be determined and analyzed."}, "[8]": {"target": "T3, RyR2 channel (Mus musculus, UniProt E9Q401, R4495C)", "T3 construct": "expressed in transfected cells; host or cells: HEK293 (cell lysate, detergent-solubilised)", "T3 sequence (E9Q401 whole entry R4495C)": "as the sequence (E9Q401 whole entry N4103K) above, with K4103N, R4495C counted along it", "assay": "Ca2+ dependence of [3H]ryanodine binding (sensitivity of RyR2 to Ca2+ activation, CICR)", "format": "biochemical", "conditions": "300 μM (FIG. 4D)", "description": "as §1\nAlternatively, the effect of compounds on CICR may be determined using [^3H]ryanodine binding. As CICR is dependent, to a large extent, on the sensitivity of the RyR2 channel to activation by Ca^2+, the effect of a compound on CICR may be determined by assessing the impact of the compound on the sensitivity of the RyR2 channel to Ca^2+ activation. To this end, [^3H]ryanodine binding to the RyR2 channel in a wide range of Ca^2+ concentrations may be measured. The sensitivity (EC50) of [^3H]ryanodine binding to RyR2 in the absence and presence of a particular compound may be determined."}, "[9]": {"target": "T4, RyR2-R4496C mutant (Mus musculus, UniProt E9Q401, R4495C)", "T4 construct": "expressed in transfected cells; host or cells: HEK293", "T4 sequence (E9Q401 whole entry R4495C)": "as the sequence (E9Q401 whole entry N4103K) above, with K4103N, R4495C counted along it", "assay": "SOICR in HEK293 cells expressing RyR2-R4496C mutant (fura-2 single cell Ca2+ imaging)", "format": "cell-based", "conditions": "up to 500 μM", "description": "as §1\nThis bioassay takes advantage of the finding that HEK293 cells expressing RyR2 mutants associated with cardiac arrhythmia and sudden death, readily display SOICR at elevated extracellular Ca^2+. […] This assay may be employed to determine the dose-dependent effect of each proposed compound on SOICR.\nas §2"}, "[10]": {"target": "β-adrenergic receptors", "conditions": "Yao et al., 2003; read-out: IC50 of β-blocking activity; cited from earlier work"}, "[11]": {"conditions": "patients with heart failure; Miller, 2003; cited from earlier work"}}, "note": "Entries after “also recorded” stand apart in the source; their conditions may differ. Like-named read-outs stand apart in the source and are kept apart here.", "data": [{"smiles": "OC(CNCCOc1cc(Cl)c(Cl)cc1Cl)COc1cccc2[nH]c3ccccc3c12", "note": "(stereo not shown) [Compound 1c]", "values": [{"measurement": "suppression of SOICR", "setting": "[1]", "value": "inactive"}]}, {"smiles": "CC/C=C\\C/C=C\\C/C=C\\C/C=C\\C/C=C\\CCCC(=O)O", "note": "[EPA, eicosapentenoic acid]", "values": [{"measurement": "effect on RyR2 channel activity", "setting": "[2]", "value": "inhibit RyR2 channel activity"}]}, {"smiles": "OC(CNCCOC1CCCCC1)COc1cccc2[nH]c3ccccc3c12", "note": "(stereo not shown) [Compound 1d]", "values": [{"measurement": "suppression of SOICR", "setting": "[1]", "value": "inactive; also recorded: limited effect"}]}, {"smiles": "c1ccc2c(c1)[nH]c1cccc(OCC3CN(CCOC4CCCCC4)CCO3)c12", "note": "(stereo not shown) [Compound 3d]", "values": [{"measurement": "suppression of SOICR", "setting": "[1]", "value": "limited effect"}]}, {"smiles": "COc1ccccc1OCCN1CCOC(COc2cccc3[nH]c4ccccc4c23)C1", "note": "(stereo not shown) [Compound 3a]", "values": [{"measurement": "suppression of SOICR", "setting": "[1]", "value": "limited effect"}]}, {"smiles": "COc1ccccc1OCCN1CC(COc2cccc3[nH]c4ccccc4c23)OC1=O", "note": "(stereo not shown) [Compound 4a]", "values": [{"measurement": "suppression of SOICR", "setting": "[1]", "value": "limited effect"}]}, {"smiles": "CC/C=C\\C/C=C\\C/C=C\\C/C=C\\C/C=C\\C/C=C\\CCC(=O)O", "note": "[DHA, docosahexenoic acid]", "values": [{"measurement": "effect on RyR2 channel activity", "setting": "[2]", "value": "inhibit RyR2 channel activity"}]}, {"smiles": "COc1ccccc1OCCN1CC(COc2cccc3[nH]c4ccccc4c23)OCC1=O", "note": "(stereo not shown) [Compound 2a]", "values": [{"measurement": "β-blocking activity (block of isoproterenol-induced RyR2 S2030 phosphorylation)", "setting": "[3]; 1-1000 nM, preliminary, listed as VK-II-36", "value": "little β-blocking activity; also recorded: does not block the β-adrenergic receptor"}, {"measurement": "effect on SOICR", "setting": "[4]; HEK293 RyR2-N4104K, 2 mM [Ca2+]o, various concentrations", "value": "abolish SOICR"}, {"measurement": "concentration at which SOICR is suppressed", "setting": "[4]; HEK293 cells (FIG. 5)", "value": "~30", "unit": "µM"}, {"measurement": "ventricular tachycardia after epinephrine (2 mg/kg) and caffeine (120 mg/kg)", "setting": "[5]; listed as VK-II-36", "value": "abolish epinephrine and caffeine-induced ventricular tachycardia; also recorded: no VT was observed"}]}, {"smiles": "COc1cc(Cl)c(Cl)cc1OCCNCC(O)COc1cccc2[nH]c3ccccc3c12", "note": "(stereo not shown) [Compound 1b]", "values": [{"measurement": "concentration that completely blocks the β-adrenergic receptor", "setting": "[3]", "value": 100, "unit": "nM"}, {"measurement": "suppression of SOICR", "setting": "[1]", "value": "activity comparable to that of carvedilol (1a)"}]}, {"smiles": "CC(C)NCC(O)c1ccc(NS(C)(=O)=O)cc1", "note": "(stereo not shown) [Sotalol, sotalol]", "values": [{"measurement": "effect on basal channel activity ([3H]ryanodine binding)", "setting": "[6]; cell lysates, 3 nM Ca2+, various concentrations of drugs (FIG. 4C)", "value": "not sotalol, inhibited basal channel activity"}, {"measurement": "effect on channel activity of RyR2", "setting": "[6]; summary statement", "value": "absolutely no effect on RyR2"}, {"measurement": "effect on SOICR", "setting": "[7]; rat ventricular myocytes, up to 300 μM", "value": "no effect; also recorded: does not suppress SOICR at all"}, {"measurement": "effect on Ca2+ dependence of [3H]ryanodine binding / sensitivity of RyR2 to Ca2+ activation", "setting": "[8]", "value": "no significant effect"}, {"measurement": "effect on SOICR", "setting": "[9]", "value": "no significant effect; also recorded: not sotalol inhibited SOICR"}]}, {"smiles": "COc1ccccc1OCCNCC(O)COc1cccc2[nH]c3ccccc3c12", "note": "(stereo not shown) [Carvedilol]", "values": [{"measurement": "concentration that completely blocks the β-adrenergic receptor", "setting": "[3]", "value": 100, "unit": "nM"}, {"measurement": "IC50", "setting": "[7]; read-out: IC50 for suppressing SOICR", "value": "~10", "unit": "µM"}, {"measurement": "IC50", "setting": "[7]; read-out: IC50 for suppressing the frequency of SOICR", "value": "~10", "unit": "µM"}, {"measurement": "concentration that abolishes SOICR", "setting": "[7]; rat ventricular myocytes, 10 mM extracellular Ca2+", "value": 50, "unit": "µM"}, {"measurement": "IC50", "setting": "[10]", "value": "0.001 to 0.002", "unit": "µM"}, {"measurement": "absolute reduction in mortality", "setting": "[11]", "value": "~7", "unit": "%"}, {"measurement": "ventricular tachycardia after epinephrine (2 mg/kg) and caffeine (120 mg/kg)", "setting": "[5]", "value": "abolish epinephrine and caffeine-induced ventricular tachycardia; also recorded: no VT was observed"}]}]}
